Measured values: patent publication US10144737B2 (ETERNITY BIOSCIENCE INC., priority 2014, dated 2018)

How the values were obtained:
Btk = molecular target: T1, Btk (Homo sapiens, UniProt Q06187); assay: Btk kinase assay (ADP-Glo); assay type: biochemical; conditions: ADP-Glo Btk kinase assay kit; ATP 1.2 μM; 60 minutes at room temperature
T1 construct: purchased Promega (Madison, Wis.)
Summary of the method: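 Luminescent ADP detection after a 60 min reaction at 22±1 °C containing Btk 2 ng/μl, 1.2 μM ATP, 0.3 μM poly GT peptide and 1.4 mM MnCl2. IC50 from log concentration versus percent inhibition relative to DMSO vehicle.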

TMD-8 cells = assay: Cell proliferation assay (CellTiter-Glo), TMD-8 cells; assay type: cell-based; conditions: Homo sapiens, TMD8, 120 h, 5-day treatment, read-out: TMD8 cell growth (GI50 μM)
Summary of the method: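 TMD-8 cells seeded at 5,000–10,000/well, cultured overnight, then exposed to compound (vehicle 0.5% DMSO) for 5 days at 37 °C. Growth read by CellTiter-Glo luminescence; IC50 from log concentration versus % growth inhibition relative to vehicle.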

T1 sequence (Q06187 whole entry): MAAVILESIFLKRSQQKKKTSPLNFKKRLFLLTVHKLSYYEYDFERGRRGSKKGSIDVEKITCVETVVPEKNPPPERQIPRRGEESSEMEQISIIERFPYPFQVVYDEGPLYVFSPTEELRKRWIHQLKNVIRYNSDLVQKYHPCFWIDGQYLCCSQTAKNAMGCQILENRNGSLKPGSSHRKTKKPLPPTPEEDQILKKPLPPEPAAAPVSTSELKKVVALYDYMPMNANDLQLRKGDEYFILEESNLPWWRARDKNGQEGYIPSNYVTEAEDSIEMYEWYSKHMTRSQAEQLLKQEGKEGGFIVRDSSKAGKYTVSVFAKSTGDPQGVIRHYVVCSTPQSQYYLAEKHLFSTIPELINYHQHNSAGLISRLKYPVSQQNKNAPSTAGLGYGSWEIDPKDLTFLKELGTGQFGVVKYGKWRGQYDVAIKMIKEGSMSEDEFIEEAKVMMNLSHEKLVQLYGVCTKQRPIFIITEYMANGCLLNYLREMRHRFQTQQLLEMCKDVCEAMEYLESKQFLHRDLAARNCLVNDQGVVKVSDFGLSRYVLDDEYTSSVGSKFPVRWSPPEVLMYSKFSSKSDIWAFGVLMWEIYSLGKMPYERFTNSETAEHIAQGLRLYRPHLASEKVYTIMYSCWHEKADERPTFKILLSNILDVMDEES

| Compound | IC50 (Btk) | GI50 (TMD-8 cells) |
| --- | --- | --- |
| C=CC(=O)N1CC[C@@H](Nc2ncnc3[nH]c(C#Cc4ccccc4Cl)cc23)C1 [Example 55, (R)-1-(3-((6-((2-chlorophenyl)ethynyl)-7H-pyrrolo[2,3-d]pyrimidin-4-yl)amino)pyrrolidin-1-yl)prop-2-en-1-one] | 0.174 µM | 0.195 µM |
| CN(C)C/C=C/C(=O)N1CC[C@@H](Nc2ncnc3[nH]c(C#Cc4ccccc4Cl)cc23)C1 [Example 56, (R,E)-1-(3-((6-((2-chlorophenyl)ethynyl)-7H-pyrrolo[2,3-d]pyrimidin-4-yl)amino)pyrrolidin-1-yl)-4-(dimethylamino)but-2-en-1-one] | 0.323 µM | 1 µM |
| C=CC(=O)N1CC[C@@H](Nc2ncnc3[nH]c(C#Cc4ccccc4OC)cc23)C1 [Example 59, (R)-1-(3-((6-((2-methoxyphenyl)ethynyl)-7H-pyrrolo[2,3-d]pyrimidin-4-yl)amino)pyrrolidin-1-yl)prop-2-en-1-one] | 0.742 µM | 1.97 µM |
| C=CC(=O)N1CC[C@@H](Nc2ncnc3[nH]c(C#Cc4cccc(F)c4)cc23)C1 [Example 61, (R)-1-(3-((6-((3-fluorophenyl)ethynyl)-7H-pyrrolo[2,3-d]pyrimidin-4-yl)amino)pyrrolidin-1-yl)prop-2-en-1-one] | 0.121 µM | 0.022 µM |
| C=CC(=O)N1CC[C@@H](Nc2ncnc3[nH]c(C#Cc4ccc(F)cc4)cc23)C1 [Example 62, (R)-1-(3-((6-((4-fluorophenyl)ethynyl)-7H-pyrrolo[2,3-d]pyrimidin-4-yl)amino)pyrrolidin-1-yl)prop-2-en-1-one] | 0.052 µM | 0.024 µM |
| C=CC(=O)N1CC[C@@H](Nc2ncnc3[nH]c(C#Cc4cccc(OC(F)(F)F)c4)cc23)C1 [Example 65, (R)-1-(3-((6-((3-trifluoromethoxyphenyl)ethynyl)-7H-pyrrolo[2,3-d]pyrimidin-4-yl)amino)pyrrolidin-1-yl)prop-2-en-1-one] | 0.173 µM | 0.0027 µM |
| C=CC(=O)N1CC[C@@H](Nc2ncnc3[nH]c(C#Cc4ccc(OC(F)(F)F)cc4)cc23)C1 [Example 66, (R)-1-(3-((6-((4-trifluoromethoxyphenyl)ethynyl)-7H-pyrrolo[2,3-d]pyrimidin-4-yl)amino)pyrrolidin-1-yl)prop-2-en-1-one] | 0.215 µM | 0.0012 µM |
| C=CC(=O)N1CC[C@@H](Nc2ncnc3[nH]c(C#Cc4ccc(C(F)(F)F)cc4)cc23)C1 [Example 67, (R)-1-(3-((6-((4-trifluoromethylphenyl)ethynyl)-7H-pyrrolo[2,3-d]pyrimidin-4-yl)amino)pyrrolidin-1-yl)prop-2-en-1-one] | 0.272 µM | 0.004 µM |
| C=CC(=O)N1CC[C@@H](Nc2ncnc3[nH]c(C#Cc4cccc(C(F)(F)F)c4)cc23)C1 [Example 68, (R)-1-(3-((6-((3-trifluoromethylphenyl)ethynyl)-7H-pyrrolo[2,3-d]pyrimidin-4-yl)amino)pyrrolidin-1-yl)prop-2-en-1-one] | 0.187 µM | 0.003 µM |
| C=CC(=O)N1CC[C@@H](Nc2ncnc3[nH]c(C#Cc4cccc(C)c4)cc23)C1 [Example 69, (R)-1-(3-((6-((3-methylphenyl)ethynyl)-7H-pyrrolo[2,3-d]pyrimidin-4-yl)amino)pyrrolidin-1-yl)prop-2-en-1-one] | 0.182 µM | 0.007 µM |

Now those with a lower IC50 (Btk), led by results:

| IC50 (Btk) | Compound | GI50 (TMD-8 cells) |
| --- | --- | --- |
| 0.018 µM | C=CC(=O)N1CC[C@@H](Nc2ncnc3[nH]c(C#Cc4ccccc4F)cc23)C1 [Example 51, (R)-1-(3-((6-((2-fluorophenyl)ethynyl)-7H-pyrrolo[2,3-d]pyrimidin-4-yl)amino)pyrrolidin-1-yl)prop-2-en-1-one] | 0.016 µM |
| 0.006 µM | CN(C)C/C=C/C(=O)N1CC[C@@H](Nc2ncnc3[nH]c(C#Cc4ccccc4F)cc23)C1 [Example 52, (R,E)-4-(dimethylamino)-1-(3-((6-((2-fluorophenyl)ethynyl)-7H-pyrrolo[2,3-d]pyrimidin-4-yl)amino)pyrrolidin-1-yl)but-2-en-1-one] | 0.187 µM |
| 0.023 µM | C=CC(=O)N1CC[C@@H](Nc2ncnc3[nH]c(C#Cc4ccc(OC)cc4)cc23)C1 [Example 53, (R)-1-(3-((6-((4-methoxyphenyl)ethynyl)-7H-pyrrolo[2,3-d]pyrimidin-4-yl)amino)pyrrolidin-1-yl)prop-2-en-1-one] | 0.006 µM |
| 0.0035 µM | CN(C)C/C=C/C(=O)N1CC[C@@H](Nc2ncnc3[nH]c(C#Cc4ccccc4)cc23)C1 [Example 54, (R,E)-4-(dimethylamino)-1-(3-((6-(phenylethynyl)-7H-pyrrolo[2,3-d]pyrimidin-4-yl)amino)pyrrolidin-1-yl)but-2-en-1-one] | 0.121 µM |
| 0.024 µM | C=CC(=O)N1CC[C@@H](Nc2ncnc3[nH]c(C#Cc4cccc(Cl)c4)cc23)C1 [Example 57, (R)-1-(3-((6-((3-chlorophenyl)ethynyl)-7H-pyrrolo[2,3-d]pyrimidin-4-yl)amino)pyrrolidin-1-yl)prop-2-en-1-one] | 0.01 µM |
| 0.0004 µM | CN(C)C/C=C/C(=O)N1CC[C@@H](Nc2ncnc3[nH]c(C#Cc4cccc(Cl)c4)cc23)C1 [Example 58, (R,E)-1-(3-((6-((3-chlorophenyl)ethynyl)-7H-pyrrolo[2,3-d]pyrimidin-4-yl)amino)pyrrolidin-1-yl)-4-(dimethylamino)but-2-en-1-one] | 0.171 µM |
| 0.011 µM | C=CC(=O)N1CC[C@@H](Nc2ncnc3[nH]c(C#Cc4cccc(OC)c4)cc23)C1 [Example 60, (R)-1-(3-((6-((3-methoxyphenyl)ethynyl)-7H-pyrrolo[2,3-d]pyrimidin-4-yl)amino)pyrrolidin-1-yl)prop-2-en-1-one] | 0.005 µM |
| 0.0048 µM | C=CC(=O)N1CC[C@@H](Nc2ncnc3[nH]c(C#Cc4ccc(Cl)cc4)cc23)C1 [Example 63, (R)-1-(3-((6-((4-chlorophenyl)ethynyl)-7H-pyrrolo[2,3-d]pyrimidin-4-yl)amino)pyrrolidin-1-yl)prop-2-en-1-one] | 0.0027 µM |
| 0.0002 µM | C=CC(=O)N1CC[C@@H](Nc2ncnc3[nH]c(C#Cc4ccc(Cl)c(Cl)c4)cc23)C1 [Example 64, (R)-1-(3-((6-((3,4-dichlorophenyl)ethynyl)-7H-pyrrolo[2,3-d]pyrimidin-4-yl)amino)pyrrolidin-1-yl)prop-2-en-1-one] | 0.005 µM |
| 0.0072 µM | C=CC(=O)N1CC[C@@H](Nc2ncnc3[nH]c(C#Cc4ccc(Cl)c(F)c4)cc23)C1 [Example 70, (R)-1-(3-((6-((3-fluoro-4-chlorophenyl)ethynyl)-7H-pyrrolo[2,3-d]pyrimidin-4-yl)amino)pyrrolidin-1-yl)prop-2-en-1-one] | 0.0013 µM |
| 0.01 µM | C=CC(=O)N1CC[C@@H](Nc2ncnc3[nH]c(C#Cc4ccc5ccccc5c4)cc23)C1 [Example 71, (R)-1-(3-((6-(naphthalen-2-ylethynyl)-7H-pyrrolo[2,3-d]pyrimidin-4-yl)amino)pyrrolidin-1-yl)prop-2-en-1-one] | 0.001 µM |
| 0.0035 µM | C=CC(=O)N1CC[C@@H](Nc2ncnc3[nH]c(C#Cc4ccc5c(c4)OCO5)cc23)C1 [Example 72, (R)-1-(3-((6-(benzo[d][1,3]dioxol-5-ylethynyl)-7H-pyrrolo[2,3-d]pyrimidin-4-yl)amino)pyrrolidin-1-yl)prop-2-en-1-one] | 0.0007 µM |
